Measurements as given in patent US10399976B2, “Dihydropyrrolopyridine inhibitors of ROR-gamma” (Vitae Pharmaceuticals, LLC, priority 2014, dated 2019).

Legend:
[1] = target: full-length RORγt in Jurkat cells (Homo sapiens (Human), UniProt P51449); test: RORγt 5×RORE Assay in Jurkat Cells (Assay 2); assay type: cell-based; details: Nanoluc luciferase reporter, 16-18 hrs, read-out: RORγt5X IC50 Range*
Description: [formula] ROR ? t 5×RORE Assay in Jurkat Cells (Assay 2)
Compounds of the present invention were tested for ROR ? inverse agonist activity in a cell-based, transcriptional activity assay. […] (Promega, Cat. # N1021) using KpnI and HindIII restriction sites. […] Luciferase activity in the conditioned supernatants was determined with NanoGlo® assay reagents (Promega, Cat.# N1130).

[2] = target: recombinant RORγ Ligand Binding Domain (LBD) (Homo sapiens (Human), UniProt P51449); test: Radio-Ligand RORγ Binding Assay (Assay 1); details: cell-free competition with 25-hydroxy [26,27-3H]-cholesterol, SPA; read-out: RORγ Binding Ki Range*
Chain of recombinant RORγ Ligand Binding Domain (LBD) (P51449 269-508): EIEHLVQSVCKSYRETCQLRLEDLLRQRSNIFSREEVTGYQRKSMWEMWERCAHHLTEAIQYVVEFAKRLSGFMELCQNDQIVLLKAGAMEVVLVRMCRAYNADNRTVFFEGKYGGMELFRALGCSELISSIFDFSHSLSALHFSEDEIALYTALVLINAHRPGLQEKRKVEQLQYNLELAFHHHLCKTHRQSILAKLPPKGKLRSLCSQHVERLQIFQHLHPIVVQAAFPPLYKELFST
Description: Radio-Ligand ROR ? Binding Assay (Assay 1)
Compounds of the present invention were tested for ability to bind to ROR ? in a cell-free competition assay with commercially available radio-ligand (RL), 25-hydroxy [26,27-^3H]-cholesterol (PerkinElmer, Cat. # NET674250UC), for a ligand binding site on a recombinant ROR ? Ligand Binding Domain (LBD) protein expressed as a 6×His-Glutathione-S-Transferase (GST) fusion. […] The plate was shaken at 700 rpm for 20 min and incubated for 10 min at rt, after which 40 μL of poly-Lys YSi SPA beads (PerkinElmer, Cat. # RPNQ0010) were added to achieve 50 μg of the beads per well. The plate was incubated on an orbital shaker for 20 min and then for 10 min without agitation at rt. SPA signal for tritium beta radiation was registered on PerkinElmer Microbeta plate reader. […] The percent inhibition vs. concentration data were fit into a four-parameter model, and IC50 values were calculated from the fit as the concentrations corresponding to the inflection points on the dose-response curves.

Chain of full-length RORγt in Jurkat cells (P51449 other isoform, or with tags, fused parts or gaps): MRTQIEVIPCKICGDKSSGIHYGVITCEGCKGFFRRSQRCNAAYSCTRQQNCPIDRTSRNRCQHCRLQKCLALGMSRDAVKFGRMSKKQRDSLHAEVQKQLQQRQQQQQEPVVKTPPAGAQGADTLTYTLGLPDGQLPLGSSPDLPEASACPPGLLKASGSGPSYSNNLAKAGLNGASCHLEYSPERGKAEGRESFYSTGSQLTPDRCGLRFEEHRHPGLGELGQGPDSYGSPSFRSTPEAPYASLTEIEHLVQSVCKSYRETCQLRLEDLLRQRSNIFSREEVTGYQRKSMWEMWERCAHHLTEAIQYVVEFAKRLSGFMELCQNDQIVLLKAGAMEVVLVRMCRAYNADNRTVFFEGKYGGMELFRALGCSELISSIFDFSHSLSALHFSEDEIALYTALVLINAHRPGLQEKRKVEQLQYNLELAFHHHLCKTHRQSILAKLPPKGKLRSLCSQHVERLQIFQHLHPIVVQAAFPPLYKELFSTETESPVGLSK

Row | IC50 [1] | Ki [2] | SMILES
1 | 0.1 to 1 µM | < 0.1 µM | CCS(=O)(=O)n1cc(CNC(=O)c2cnc3c(c2)CN(Cc2ccc(C(F)(F)F)cc2)[C@H]3C(C)C)cn1 [Compound 133]
2 | – | 0.1 to 1 µM | CC(C)[C@H]1c2ncc(C(=O)NCc3cnn(C)c3)cc2CN1Cc1ccc(C(F)(F)F)cc1 [Compound 76]
3 | – | > 1 µM | CC(C)[C@H]1c2ncc(C(=O)NCc3ccnn3C)cc2CN1Cc1ccc(C(F)(F)F)cc1 [Compound 73]
